Usually viability stands for a read-out of living cells in per cent, often relative to untreated cells. Low readings indicate more harm to the cells, high ones less harm to the cells.

We go through 6 compounds from patent publication US20240417425A1 (priority 2021, published 2024).

For one data set, the system named is NCI-60 cell line panel. The data set can be described thus: NCI-60 one-dose cancer cell growth testing. The settings on record: FIGS. 13-15. The data set is classed as cell-based, human. As to the method: The anti-proliferative activity of the target compounds was tested against the NCI-60 cell line panel. The screening was performed at the National Cancer Institute (NCI), Bethesda, Maryland, USA (www.dtp.nci.nih.gov), according to their standard protocol (https://dtp.cancer.gov/discovery_development/nci-60/methodology.htm).
In the anti-cancer studies were performed at the NCI, NIH in the one-dose testing of the NCI-60 project (https://dtp.cancer.gov/discovery_development/nci-60/methodology.htm). The numbers reported are growth relative to the no-drug control, and relative to the time zero number of cells. This allows detection of both growth inhibition (values between 0 and 100) and lethality (values less than 0). For example, a value of 100 means no growth inhibition. A value of 40 would mean 60% growth inhibition. A value of 0 means no net growth over the course of the experiment. A value of −40 would mean 40% lethality. A value of −100 means all cells are dead.

A further data set deals with quail cardiomyocytes. The settings on record: for Effect on cardiomyocytes contractility compared to digoxin: all concentrations tested, 10 minutes and 30 minutes after addition (FIGS. 5, 6).
Data set [1] deals with Neuroblastoma (SH-SY5Y) cells.
The nature of the next data set: in vitro. The settings on record: human.
The test system of another data set is Na^+, K^+-ATPase. The note with it: for Inhibition of brain microsomal Na+,K+-ATPase activity, potency in comparison to Bufalin: FIGS. 2 and 3.
Data set [2] has as its system MHV, FIPV, Middle East respiratory syndrome (MERS)-CoV, VSV, IAV. The note with it: cited from earlier work.
For another data set, the system named is influenza virus. The note with it: cited from earlier work.
Data set [3] relates to Chikungunya virus (CHIKV). The note with it: human cells; cited from earlier work.
For data set [4], the system named is Human respiratory syncytial virus (RSV). The settings on record: human small airway epithelial cells; cited from earlier work.
Data set [5] has as its system Japanese Encephalitis Virus. The note with it: cited from earlier work.
The test system of data set [6] is transmissible gastroenteritis coronavirus (TGEV). The settings on record: swine testicular (ST) cells; cited from earlier work.
The subject of another data set is herpes simplex virus. The note with it: cited from earlier work.

SMILES strings stand for the structures. Where two headings read alike, the source gives them in different places.

With `C[C@]12CCC=CC1CCC1C2CC[C@]2(C)[C@@H](c3ccc(=O)oc3)CC[C@]12O` (stereo partly drawn) [Compound 2, bufalin 3,4-ene], the “Most sensitive cancer cell line” value in the data set on NCI-60 cell line panel is given as “SNB-19”. For the same compound, the “Effect on cardiomyocytes contractility compared to digoxin” value with quail cardiomyocytes is “stronger effect on contractility than digoxin”. Further, the “Cytotoxic potency in comparison to the other steroids” value in data set [1] is “lower cytotoxic potency”. In “in vitro”, the viability at 5 µM was determined as 53.8%, the viability at 25 µM amounted to 24.7%, the viability at 50 µM was 11.5% and the viability at 100 µM is 6.13%. Moreover, the “Inhibition of brain microsomal Na+,K+-ATPase activity, potency in comparison to Bufalin” value in the data set on Na^+, K^+-ATPase is reported as “more potent inhibitor”. Besides, the “Inhibition of Na+,K+-ATPase activity at very low concentrations in comparison to Bufalin” value in the data set on Na^+, K^+-ATPase (very low (nanomolar) concentrations) is recorded as “better than Bufalin”.
In the case of `C[C@]12CC[C@H](O)C[C@H]1CC[C@@H]1[C@@H]2CC[C@]2(C)[C@@H](c3ccc(=O)oc3)CC[C@]12O` [Bufalin, bufalin], the “Effect on infection of cells with viruses” value in data set [2] was “inhibited infection of cells with MHV, FIPV, Middle East respiratory syndrome (MERS)-CoV, and VSV, but not IAV”.
With `C[C@@H]1O[C@@H](O[C@H]2C[C@@H](O)[C@]3(CO)[C@H]4[C@H](O)C[C@]5(C)[C@@H](C6=CC(=O)OC6)CC[C@]5(O)[C@@H]4CC[C@]3(O)C2)[C@H](O)[C@H](O)[C@H]1O` [Ouabain, ouabain], the “Effect on infection of cells with viruses” value in [2] (nM concentrations) is “inhibited infection of cells with MHV, FIPV, Middle East respiratory syndrome (MERS)-CoV, and VSV, but not IAV”. Besides, the “Effect on influenza virus replication” value in the data set on influenza virus is “decrease influenza virus replication”. Further, the “Effect on infection by CHIKV” value in [3] is “dose-dependent decrease in infection”. Also, the “Effect on RSV entry” value in data set [4] is “inhibited”. In addition, the “Efficiency against Japanese Encephalitis Virus” value in [5] is “robust efficiency against the virus”. The “Effect on TGEV-induced production of IL-6” value in [6] was “inhibit the TGEV-induced production of IL-6 in a dose dependent manner”. Besides, the “Reduction of expression of viral immediate-early and early genes” value in the data set with herpes simplex virus is listed as “at least 5 fold”. In “in vitro”, this compound came in with a viability at 5 µM of 6.26%, a viability at 25 µM of 1.92%, a viability at 50 µM of 0.51% and a viability at 100 µM of 4.09%.
For the compound `C[C@H]1O[C@@H](O[C@H]2[C@@H](O)C[C@H](O[C@H]3[C@@H](O)C[C@H](O[C@H]4CC[C@@]5(C)[C@H](CC[C@@H]6[C@@H]5C[C@@H](O)[C@]5(C)[C@@H](C7=CC(=O)OC7)CC[C@]65O)C4)O[C@@H]3C)O[C@@H]2C)C[C@H](O)[C@@H]1O` [Digoxin, digoxin], the “Effect on infection by CHIKV” value in data set [3] was “dose-dependent decrease in infection”. Further, the “Efficiency against Japanese Encephalitis Virus” value in data set [5] is given as “robust efficiency against the virus”. Besides, in the data set “in vitro”, the viability at 5 µM turned out to be 23.4%, the viability at 25 µM turned out to be 1.02%, the viability at 50 µM was 0.26% and the viability at 100 µM was 2.55%.
Turning to `C[C@]12CC=CCC1CCC1C2CC[C@]2(C)[C@@H](c3ccc(=O)oc3)CC[C@]12O` (stereo partly drawn) [Compound 1, bufalin 2,3-ene], the “Most sensitive cancer cell line” value in the data set with NCI-60 cell line panel is “SNB-19”. The “Effect on cardiomyocytes contractility compared to digoxin” value in the data set on quail cardiomyocytes was “stronger effect on contractility than digoxin”. In data set [1], the “Cytotoxic potency in comparison to the other steroids” value is given as “lower cytotoxic potency”. In “in vitro”, this compound yielded a viability at 5 µM of 32.2%, a viability at 25 µM of 13.8%, a viability at 50 µM of 5.62% and a viability at 100 µM of 1.28%. In addition, the “Inhibition of brain microsomal Na+,K+-ATPase activity, potency in comparison to Bufalin” value with Na^+, K^+-ATPase is listed as “approximately the same potency as Bufalin”.
Take `NC[C@H](O)c1ccc(O)c(O)c1` [noradrenaline]: in the data set with quail cardiomyocytes (dose-dependently, FIG. 4), the “Effect on cardiomyocytes contractility” value is given as “increased”.
